Reference: US20170240556A1, “BIFLUORODIOXALANE-AMINO-BENZIMIDAZOLE KINASE INHIBITORS FOR THE TREATMENT OF CANCER, AUTOIMMUNEINFLAMMATION AND CNS DISORDERS” (4SC DISCOVERY GMBH, priority 2012, published 2017)

Legend:
[1] = biological target: Casein kinase 1 delta (CSKN1D) (Homo sapiens, UniProt P48730); assay: Casein kinase assay, CK1 delta; format: biochemical; conditions: recombinant CSKN1D 5 nM, ATP 10 μM
[2] = biological target: Casein kinase 1 epsilon (CSKN1E) (Homo sapiens, UniProt P49674); assay: Casein kinase assay, CK1 epsilon; format: biochemical; conditions: recombinant CSKN1E 30 nM, ATP 10 μM
[3] = system: Hedgehog signaling pathway; assay: Hedgehog reporter assay (Gli Reporter - NIH3T3 Cell Line); format: cell-based; conditions: Mus musculus; Gli reporter NIH3T3 cells, murine SHH stimulation, 24 h; read-out: HH Assay
Experimental: In order to investigate the potency of test compounds to inhibit the Hedgehog signaling pathway, a Gli-Reporter assay was performed.
The “Gli Reporter—NIH3T3 Cell Line” contains the firefly luciferase gene under the control of Gli responsive elements stably integrated into murine NIH3T3 cells (cells purchased from Amsbio). The luciferase expression correlates with activation of the hedgehog signaling pathway. This cell line is validated for its response to stimulation with murine Sonic Hedgehog and to treatment with inhibitors of the hedgehog signaling pathway. A multiplexed viability assay was used to discriminate inhibition on the pathway activity from cell toxicity.
Growth Medium: DMEM, 10% Calf Serum, 1% Penicillin/Streptomycin 500 μg/ml Geneticin (G418 Stock 50 mg/ml).
25.000 cells per well were seeded into a white 96 well plate in 100 μl growth medium and incubated over night at 37° C. and 5% CO2. After removing the supernatant the test compounds and controls (known GLI inhibitor, e.g. GANT-61) were added in different concentrations in a final volume of 45 μl and incubated for 1 h at 37° C. and 5% CO2. For the stimulation of the Hedgehog pathway 5 μl of 10 μg/ml concentrated murine sonic hedgehog (SHH) was added to the cells. A final concentration of 1 μg/ml mSHH and 0.1% DMSO was reached per well. After incubation for 24 h at 37° C. the cells were investigated for viability and reporter activity.
Viability: For the determination of the viability of the treated cells the CellTiter-Fluor Kit from Promega was used. Essentially, only proteases of viable cells are able to cleave the cell-permeant substrate Gly-Phe-AFCoumarin (GF-AFC). By this cleavage the fluorescent AFC is set free and can be detected in a fluorescence reader. For this assay 10 μl of GF-AFC substrate (CellTiter-Fluor, Promega #G6082) was diluted in 2 ml assay buffer from the CellTiter-Fluor Kit and 10 μl of this dilution was added per well to the cells and incubated for 30 min at 37° C. The fluorescence was measured with excitation at 380-400 nm and emission at 505 nm.
Reporter activity: The firefly luciferase reporter activity was detected with the ONE-Glo™ Luciferase Assay System from Promega. For this assay 50 μl ONE-Glo luciferase reagent (Promega #E6120, contains cell lysis buffer and luciferin) was added to each well and incubated at room temperature for 5 min. Luminescence was detected in a plate reader and served as a degree for reporter activity.

[4] = system: Wnt/β-catenin signaling pathway; assay: Wnt reporter assay (CellSensor LEF/TCF-bla FreeStyle 293F cells); format: cell-based; conditions: Homo sapiens; LEF/TCF-bla 293F cells, LiCl and mWnt3a stimulation
Experimental: The Wnt reporter assay was performed in stably transfected human HEK293 cells. Wnt signaling was induced by administration of Wnt3a protein and read out by β-Lactamase mediated cleavage of CCF4-AM and subsequent fluorescent detection.
CellSensor LEF/TCF-bla FreeStyle 293F cells (invitrogen #K1677) contain a beta-lactamase reporter gene under control of the β-catenin/LEF/TCF binding elements stably integrated into FreeStyle 293F cells. This cell line can be used to detect antagonists of the Wnt/β-catenin signaling pathway when stimulated by mouse Wnt3a or LiCl. The detection of beta-lactamase is possible with LiveBLAzer FRET—B/G Loading Kit (invitrogen #K1095) with CCF4-AM as subtrate.
Culture Medium: DMEM Medium +10% dialyzed FBS (PAN 2102-P290310), +1% NEAA (PAA M11-003), +1% P/S (Penicillin/Streptomycin, PAA P11-010) +25 mM HEPES (PAA S11-001), +5 μg/ml Blasticidin (PAA P05-017).
Cells (CellSensor LEF/TCF-bla FreeStyle 293F, invitrogen K1677) were split with Culture Medium to reach a confluence at the beginning of the assay of 80-90%.
At start of the assay, cells were harvested from culture and resuspend in assay medium at density of 0,66*10̂6 cells/ml. Subsequently, 60μ1 cell suspension were pipetted in each well of a Poly-D-Lysine 96 well Plate (BD #354640, vertical rows are marked 1 through 12, horizontal lanes are marked A through H),
Plates were subsequently incubated at 37° C. for at least 2 h.
To stimulate with Wnt3a, overnight prestimulation of Wnt signalling pathway with LiCl is necessary. Subsequently, an 8M aqueous LiCl solution was diluted 1:200 in assay medium, and 30 μl of said diluted LiCl solution was plated into the appropriate wells (see below pipetting scheme). Plates were then incubated at 37° C. over night.
Subsequently, compounds and controls were prepared as follows: mWnt3a (R&D 1324-WN, dissolved in PBS+0.1% BSA to 40 μg/ml) was diluted 1:100 in assay medium (=400 ng/ml). Compounds (Cpd) were diluted to a concentration of 10 mM in DMSO to prepare dilution series in assay medium (final concentrations 30 μM, 10 μM, 3 μM, 1 μM, 0.3 μM, 0.1 μM, 0.03 μM and 0.01 μM), which were pipetted into the appropriate wells (see below pipetting scheme). For each dilution of each compound, 3 replicates were tested. Final DMSO concentration was 0.3%.
LiCl and mWnt3a stimulated cells were used as High control (HC), unstimulated cells were used as low control, a blank was prepared from cell free medium plus mWnt3a, and a functional control was prepared with a known Wnt inhibitor (e.g. PKF118-310), final concentrations were as above.
Subsequently, the well was incubated for 5 h at 37° C.
At t=23 hours, FRET reagent mix (Loading Kit with CCF4-AM, Life Technologies #K1096) was prepared; per plate: 138 μl Solution B, 13.8 μl FRET-reagent, and 2300 μl Solution C. 24 μl FRET reagent mix were plated to each well, subsequently plates were incubated for at least 2 h in the dark (it is possible to incubate over night). Subsequently, plates were measured in the BMG FluorStar® plate reader at an emission waveltengths of 460 and 520 nm and with an excitation wavelength of 405 nm.
To determine potential cytotoxicity of the compounds, plates were centrifuge and the supernatant was discarded by dumping the plates. Subsequently, 100 μl Opti-MEM and 50 μl ViaLight (Lonza #LT07-321) Lysis Buffer were added to each well, followed by incubation for 10 min at room temperature (25° C.). Subsequently, 100 μl ViaLight reagent were added to each well, followed by incubation for 2 min at room temperature (25° C.) in the dark. Optionally, 200 μl of the obtained suspension were transferred to a white 96 well plate. The luminescence was measured with a Tecan Ultra plate reader.

Chain of Casein kinase 1 delta (CSKN1D) (P48730 whole entry): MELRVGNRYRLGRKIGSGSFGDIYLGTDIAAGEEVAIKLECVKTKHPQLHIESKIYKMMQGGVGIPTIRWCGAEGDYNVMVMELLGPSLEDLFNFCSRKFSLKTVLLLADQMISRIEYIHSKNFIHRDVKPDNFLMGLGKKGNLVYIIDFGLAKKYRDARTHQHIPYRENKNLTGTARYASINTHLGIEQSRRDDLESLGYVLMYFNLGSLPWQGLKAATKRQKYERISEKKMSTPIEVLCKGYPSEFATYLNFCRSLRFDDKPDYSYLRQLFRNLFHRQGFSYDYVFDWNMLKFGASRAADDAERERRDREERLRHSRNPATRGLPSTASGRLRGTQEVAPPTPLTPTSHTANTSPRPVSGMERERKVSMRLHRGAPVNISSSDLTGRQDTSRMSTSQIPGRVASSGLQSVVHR
Chain of Casein kinase 1 epsilon (CSKN1E) (P49674 whole entry): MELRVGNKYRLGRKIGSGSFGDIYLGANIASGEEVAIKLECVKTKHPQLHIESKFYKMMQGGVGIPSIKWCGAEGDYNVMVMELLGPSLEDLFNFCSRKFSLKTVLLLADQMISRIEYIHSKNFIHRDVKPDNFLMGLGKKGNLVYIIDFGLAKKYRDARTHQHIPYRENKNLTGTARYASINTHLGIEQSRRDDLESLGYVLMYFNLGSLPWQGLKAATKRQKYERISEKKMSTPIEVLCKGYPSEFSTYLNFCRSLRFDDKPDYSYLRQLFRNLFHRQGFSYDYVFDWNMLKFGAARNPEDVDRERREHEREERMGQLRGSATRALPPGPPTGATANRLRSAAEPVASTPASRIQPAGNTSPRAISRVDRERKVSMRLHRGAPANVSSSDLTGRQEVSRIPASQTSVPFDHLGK

Row | IC50 [1] | IC50 [2] | IC50 [3] | IC50 [4] | SMILES
1 | < 200 nM | < 200 nM | 500 to 1000 nM | < 5000 nM | O=C(Nc1nc2cc3c(cc2[nH]1)OC(F)(F)O3)c1cccc(-c2ncc[nH]2)c1 [Compound 140, N-(2,2-difluoro-5H-[1,3]dioxolo[4′,5′:4,5]benzo[1,2-d]imidazol-6-yl)-3-(1H-imidazol-2-yl)benzamide]
2 | < 200 nM | – | ≤ 500 nM | < 5000 nM | COc1cc(C(=O)Nc2nc3cc4c(cc3[nH]2)OC(F)(F)O4)ccc1N [Compound 9B, 4-amino-N-(2,2-difluoro-5H-[1,3]dioxolo[4′,5′:4,5]benzo[1,2-d]imidazol-6-yl)-3-methoxybenzamide]
3 | < 200 nM | < 200 nM | – | < 5000 nM | Cc1nnnn1-c1cccc(C(=O)Nc2nc3cc4c(cc3[nH]2)OC(F)(F)O4)c1 [Compound 148, N-(2,2-difluoro-5H-[1,3]dioxolo[4′,5′:4,5]benzo[1,2-d]imidazol-6-yl)-3-(5-methyl-1H-tetrazol-1-yl)benzamide]
4 | < 200 nM | < 200 nM | 1000 to 15000 nM | 5000 to 20000 nM | O=C(Nc1nc2cc3c(cc2[nH]1)OC(F)(F)O3)c1cccc(-n2cnnn2)c1 [Compound 149, N-(2,2-difluoro-5H-[1,3]dioxolo[4′,5′:4,5]benzo[1,2-d]imidazol-6-yl)-3-(1H-tetrazol-1-yl)benzamide]
5 | < 200 nM | < 200 nM | – | < 5000 nM | COc1cc(OC)cc(C(=O)Nc2nc3cc4c(cc3[nH]2)OC(F)(F)O4)c1 [Compound 1B, N-(2,2-difluoro-5H-[1,3]dioxolo[4′,5′:4,5]benzo[1,2-d]imidazol-6-yl)-3,5-dimethoxybenzamide]
6 | < 200 nM | – | – | < 5000 nM | O=C(Nc1nc2cc3c(cc2[nH]1)OC(F)(F)O3)c1cccc(-c2nccs2)c1 [Compound 2B, N-(2,2-difluoro-5H-[1,3]dioxolo[4′,5′:4,5]benzo[1,2-d]imidazol-6-yl)-3-(thiazol-2-yl)benzamide]
7 | < 200 nM | < 200 nM | 500 to 1000 nM | < 5000 nM | Cc1nc(-c2cccc(C(=O)Nc3nc4cc5c(cc4[nH]3)OC(F)(F)O5)c2)no1 [Compound 137, N-(2,2-difluoro-5H-[1,3]dioxolo[4′,5′:4,5]benzo[1,2-d]imidazol-6-yl)-3-(5-methyl-1,2,4-oxadiazol-3-yl)benzamide]
